Among the data in the METLIN SMRT retention time set (Domingo-Almenara et al. 2019) are RP-LC retention time values, retold here.

This data set in a line: gradient 5% acetonitrile 3 min, to 50% in 2 min, to 85% in 15 min, held 3 min, 100 µL/min. The conditions noted are these: column: Zorbax Extend-C18 2.1 x 50 mm; eluents: water / acetonitrile, 0.1% formic acid. The essentials:
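A Zorbax Extend-C18 column (2.1 × 50 mm, 1.8 μm) run at 100 μL/min with water and acetonitrile, both containing 0.1% formic acid, separated mixtures of ~100 pure standards. The HPLC was coupled to a quadrupole time-of-flight mass spectrometer operated in positive and negative ionization mode, with dead and dwell volumes of 40 μL and 900 μL. Each retention time was taken from a computationally picked adduct peak that was then manually inspected.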
For `CC(C)NC(=O)N1CCCCCC1c1nc(C2CC2)no1` (centres undefined), the RP-LC retention time was determined as 802 s.
With `CCCOc1ccc(CNC(=O)c2cnc(OC)nc2)cc1`, the RP-LC retention time is 803 s.
`COc1ccc(-c2nnc(-c3ccc(C)c(S(=O)(=O)N4CCCCCC4)c3)o2)cc1` returned an RP-LC retention time of 1150 s.
To `COc1ccc(-c2ncc3c(n2)CCN(C(=O)Nc2ccccc2C(F)(F)F)C3)cc1` belongs 939 s; to `O=C(O)[C@@H]1OCC(=O)N(C2CC2)[C@H]1c1ccccc1`, 648 s; to `CCc1nnc(-c2ccc3ccn(CC(=O)NCc4cccs4)c3c2)o1`, 790 s.
The compound `CCN1C(=O)NC(c2cccc(F)c2)C2=C1CN(CCC(=O)NCCOC)C2=O` (centres undefined) registered an RP-LC retention time of 586 s.
The compound `CCNC(=O)N1C[C@@H]2CCCN3CCC[C@@H]([C@H]23)[C@H]1CCCC(=O)NCC1CC1` showed an RP-LC retention time of 569 s.
The value for `CC(Oc1ccccc1)c1nc(-c2ccc3c(c2)nnn3CCC(=O)N2CCCC2)no1` (centres undefined) was 899 s; that for `O=c1c2sccc2n(Cc2nc(-c3ccc(F)cc3)no2)c(=O)n1-c1ccc(F)cc1` was 987 s; that for `O=c1nccc(SCc2ccc(Cl)cc2Cl)[nH]1` was 842 s.
The value for `CC(C)N1CCn2cc(S(=O)(=O)Nc3ccccc3F)cc2C1=O` was 730 s; that for `COc1ccc(-c2cn3c(CC(=O)N4CCN(c5ccc(Cl)cc5)CC4)csc3n2)cc1OC` was 816 s; that for `CC(C)CCNC(=O)C1CCCN(S(=O)(=O)c2ccc3nc(-c4ccccc4)[nH]c3c2)C1` (centres undefined) was 841 s.
With `COc1cc(NC(=O)NC2CCN(c3ccccc3)C2=O)cc(OC)c1` (centres undefined), the RP-LC retention time is 768 s.
Take `CCOc1ccc(-c2noc(Cn3c(=O)n(CC4CCCO4)c(=O)c4ccccc43)n2)cc1OC` (centres undefined): the RP-LC retention time came out at 957 s.
`CC(C)C(=O)N1N=C(c2ccc(NS(=O)(=O)c3ccccc3)cc2)CC1c1ccco1` (centres undefined) gave an RP-LC retention time of 870 s.
The value for `COc1ccc(C)cc1NS(=O)(=O)c1ccccc1-c1nc(-c2ccc(F)cc2)no1` was 1280 s.
`CN(Cc1ccccc1)S(=O)(=O)c1cc2c3c(c1)CCC(=O)N3CCC2` came in with an RP-LC retention time of 926 s.
The value for `CCOC(=O)N1CCN(C(=O)CSCC(=O)Nc2nc(-c3ccc(OC)cc3)cs2)CC1` was 841 s.
The compound `CN(C)C(CNS(=O)(=O)c1ccc(Cl)cc1)c1ccccc1` (centres undefined) yielded an RP-LC retention time of 652 s.
`CCOc1ccccc1-n1ccn(Cc2nc(-c3ccc(C)c(C)c3)no2)c(=O)c1=O` displayed an RP-LC retention time of 958 s.
To `CN(C)c1ccc(-c2nnc3sc(-c4ccc5ccccc5n4)nn23)cc1` belongs 1360 s; to `COc1ccc(-c2csc(NC(=O)c3sc(COc4ccc(Cl)c(C)c4)nc3C)n2)cc1`, 1320 s.
With `CCn1c(=O)c(C)nc2cc(-c3noc(Cc4ccc(OC)c(OC)c4)n3)ccc21`, the RP-LC retention time was found to be 888 s.
With `CCN1C(=O)c2cc(S(=O)(=O)Nc3ccc(F)cc3C)ccc2Oc2cccnc21`, the RP-LC retention time is 1010 s.
In the case of `O=C(CN1CCN(Cc2ccc(F)cc2)C(=O)C1=O)NCc1ccc2c(c1)OCO2`, the RP-LC retention time amounted to 780 s.
To `Cn1nc(-c2nc(-c3cccc(F)c3)no2)c2c1CCN(C(=O)C1CCCO1)C2` (centres undefined) belongs 789 s.
`Cc1sc2ccn(CC(C)C)c(=O)c2c1C(=O)NCc1ccc(N(C)C)cc1` returned an RP-LC retention time of 652 s.
Take `Cc1nc(-c2cc3ccccc3nc2N2CCN(c3ccccc3)CC2)no1`: the RP-LC retention time worked out at 666 s.
To `CC(C)c1ccc(S(=O)(=O)N2CCCC2c2nc(-c3cccc(Cl)c3)no2)cc1` (centres undefined) belongs 1350 s; to `COC(=O)c1ncn2c1C(=O)N(c1cc(C)cc(C)c1)C(C)(C(=O)NC1CCCC1)C2` (centres undefined), 734 s.
The value for `CNC(=O)c1noc([C@@H]2CC(F)(F)CN2Cc2cccn2C)n1` was 590 s; that for `O=C(NCCc1ccco1)c1ccc2ccnc(N3CCN(c4ccccc4)CC3)c2c1` was 772 s.
In turn, `CC(C)C(=O)Nc1ccc(CCc2nc3ccc(C(=O)NC4CC4)cc3[nH]2)cc1` returned an RP-LC retention time of 594 s.
The compound `O=C(NC1CCCCC1)c1ccc2ccnc(N3CCN(c4ccc(F)cc4)CC3)c2c1` registered an RP-LC retention time of 908 s.
The compound `COc1ccc(CNC(=O)c2cn3ccc(C)cc3n2)cc1` showed an RP-LC retention time of 545 s.
In the case of `O=C(Cn1ncc2c(c1=O)N(CC1CC1)C(=O)CS2)NCc1ccc(F)cc1`, the RP-LC retention time was 750 s.
Consider `COc1ccc(-c2noc(Cn3ccnc3)n2)cc1OC`, for which the RP-LC retention time worked out at 586 s.
The value for `O=C(C1CCCO1)N1CCC2(CC1)NCCc1c2[nH]c2ccccc12` (centres undefined) was 610 s.
`CCOCCCNC(=O)N1CCN(Cc2nc3cc(C(=O)NC(C)C)ccc3n2C)CC1` showed an RP-LC retention time of 593 s.
`COC1CCOC2(CCN(C(=O)c3cccs3)CC2)C1` (centres undefined): the RP-LC retention time worked out at 703 s.
To `COCC(=O)N1CCN(C2CCN(CCC(C)C)C2=O)CC1` (centres undefined) belongs 535 s.
As for `COc1c(C(=O)NCc2cc(F)cc(F)c2)sc2ccc(F)cc12`, the RP-LC retention time was 1070 s.
To `O=C(c1ccc2c(c1)OCO2)N1CCN(c2cc(-c3ccc(Cl)cc3)[nH]n2)CC1` belongs 836 s.
The value for `CC(CCNc1ccc(-c2nc(-c3ccc(F)cc3)no2)cn1)N1CCCCCC1` (centres undefined) was 768 s.
The value for `CCC1CN2C=NC(N3CCN(C(=O)c4ccc5c(c4)OCO5)CC3)=CC2=N1` (centres undefined) was 609 s; that for `O=C(NCc1cccc(C(F)(F)F)c1)c1ccc2c(c1)ncn2CCN1CCCC1` was 618 s.
Compound `Cc1nc2c(NC(=O)COc3ccccc3C)cccn2n1` registered an RP-LC retention time of 916 s.
In turn, `COc1cc(Cl)c(C)cc1NC(=O)Cn1ncc2c(N3CCN(c4ccccn4)CC3)ncnc21` registered an RP-LC retention time of 678 s.
As for `CS(=O)(=O)N1CCC(CC(=O)NC2CCCCC2)C1` (centres undefined), the RP-LC retention time amounted to 668 s.
Compound `c1ccc(CSc2ccc(-c3ccc4c(c3)OCO4)nn2)nc1` displayed an RP-LC retention time of 617 s.
As to `CCSc1nnc(-c2nn(C)c3c2CN(C(=O)CCc2ccccc2)CC3)n1C`, the RP-LC retention time came out at 767 s.
Consider `O=C(CCc1csc2nc(-c3ccc(Cl)cc3)cn12)Nc1nccs1`, for which the RP-LC retention time is 774 s.
To `Cc1ccccc1-c1nc(-c2nnn(Cc3ccccc3)c2C)no1` belongs 1120 s; to `CCN1CCN(c2ccc(NC(=O)c3ccc(Cl)s3)cn2)C1=O`, 742 s.
`CCCN(C)C(=O)c1cc2c(s1)N(CCC)CCCC2` returned an RP-LC retention time of 1170 s.
Regarding `Cc1cc(-c2nnc(-c3ccc(F)cc3)o2)c(C)n1CC(=O)NCc1ccc(F)cc1F`, the RP-LC retention time came out at 939 s.
Take `Cc1ccc(C)c(Cn2nc3c(S(=O)(=O)N4CCN(c5ccc(F)cc5)CC4)cccn3c2=O)c1`: the RP-LC retention time was 1050 s.
The compound `COc1cc(NC(=O)Nc2cccc(-c3nccnc3N3CCCC3)c2)cc(OC)c1` gave an RP-LC retention time of 596 s.
`CCC(=O)N1CCC(C(=O)Nc2ccc(S(=O)(=O)N3CCCC3)cc2)CC1`: the RP-LC retention time worked out at 697 s.
On to `CCOC(=O)c1[nH]c(C)c(C(=O)C(C)N(C(=O)c2ccc(Cl)cc2)C2CC2)c1C` (centres undefined), for which the RP-LC retention time was determined as 978 s.
On to `CS(=O)(=O)Oc1ccc(Br)c2cccnc12`, for which the RP-LC retention time came out at 889 s.
`O=C(CCc1nnn2c1CN(C(=O)c1nccc3ccccc13)CC2)N1CCCC1` displayed an RP-LC retention time of 625 s.
Regarding `CCN(CC)C(=O)N1CCCN(S(C)(=O)=O)C(c2ccccc2)CC(=O)NCC1` (centres undefined), the RP-LC retention time was 700 s.
To `COc1ccccc1CCNS(=O)(=O)c1cc2c3c(c1)CCC(=O)N3CCC2` belongs 882 s.
Turning to `CN(C)c1cccc(C(=O)NC2CCN(c3cc(-c4ccc(F)cc4)[nH]n3)C2)c1` (centres undefined), the RP-LC retention time worked out at 684 s.
Compound `O=C(c1nc(-c2cnccn2)no1)N1CCc2ccccc21` displayed an RP-LC retention time of 740 s.
The value for `CCOC(=O)c1ccc(NC(=O)C2CCN(c3c(C(=O)N(CC)CC)cnc4snc(C)c34)CC2)cc1` was 967 s; that for `Cc1cccc(-c2noc(-c3nnn4c3COC(c3ccc(F)cc3)C4)n2)c1` (centres undefined) was 1210 s.
With `CC1(C)CC(=O)C2=C(C1)Nc1ccccc1N(CC(=O)NCC1CCCO1)C2c1cccs1` (centres undefined), the RP-LC retention time worked out at 754 s.
The value for `Cc1ccc(F)cc1S(=O)(=O)N1CCc2c(c(-c3nnc(-c4ccccc4)o3)nn2C)C1` was 846 s; that for `CN(CC1CCOC1)C(=O)NCc1cccc(F)c1` (centres undefined) was 675 s.
Turning to `COc1ccc(NS(=O)(=O)c2c[nH]c3ncccc23)cc1Cl`, the RP-LC retention time was 729 s.
Turning to `CN1CCN(CCNC(=O)c2nc3ccccn3c2-c2ccc(Cl)cc2)CC1`, the RP-LC retention time was 603 s.
`COc1ccc(C2CC(=O)N(c3ccc(C)cc3)C(=O)C2)cc1OC`: the RP-LC retention time amounted to 831 s.
On to `CCC(CN1CCOCC1)NC(=O)c1c2c(nc3ccccc13)C(=O)N(C1CCCCC1)C2` (centres undefined), for which the RP-LC retention time worked out at 610 s.
In turn, `Cn1c(CN2CCN(C(=O)Nc3ccccc3C(F)(F)F)CC2)nc2ccccc21` displayed an RP-LC retention time of 558 s.
For `Cc1ccc(NC(=O)c2cnc3c(c2)c(=O)n(C)c(=O)n3-c2ccccc2)c(F)c1`, the RP-LC retention time came to 887 s.
